Measured values: US12459922B2 (Gilead Sciences, Inc., priority 2022, dated 2025)

Tested on: endogenous cellular STAT1 (phosphorylated at Tyr701) in NCI-H1373 cells
Test: Phospho-STAT1 (Tyr701) LANCE Ultra TR-FRET Detection Assay
Assay type: cell-based
Conditions: Homo sapiens, NCI-H1373, 48 h, phospho-STAT1 (Tyr701) induction, read-out: NH1373 pSTAT1 EC50

Compound	EC50
O=c1[nH]ncc(N[C@H](CCCn2cnc3cc(-c4ncc(Cl)cn4)c(F)cc3c2=O)C2CC2)c1C(F)(F)F [Example 470, 7-(5-chloropyrimidin-2-yl)-3-[(4R)-4-cyclopropyl-4-[[6-oxo-5-(trifluoromethyl)-1H-pyridazin-4-yl]amino]butyl]-6-fluoro-quinazolin-4-one]	39.3 nM
COc1cnc(-c2cc3ccn(CCC[C@H](C)Nc4cn[nH]c(=O)c4C(F)(F)F)c(=O)c3cc2F)nc1N [Example 102, 6-(4-amino-5-methoxy-pyrimidin-2-yl)-7-fluoro-2-[(4S)-4-[[6-oxo-5-(trifluoromethyl)-1H-pyridazin-4-yl]amino]pentyl]isoquinolin-1-one]	8.23 nM
C[C@@H](CCCn1cnc2cc(-c3ncc(OCCO)cn3)c(F)cc2c1=O)Nc1cn[nH]c(=O)c1C(F)(F)F [Example 127, (S)-6-fluoro-7-(5-(2-hydroxyethoxy)pyrimidin-2-yl)-3-(4-((6-oxo-5-(trifluoromethyl)-1,6-dihydropyridazin-4-yl)amino)pentyl)quinazolin-4(3H)-one]	474 nM
Nc1nc(-c2cc3ncn(CCC[C@@H](Nc4cn[nH]c(=O)c4C(F)(F)F)C4CC4)c(=O)c3cc2F)cnc1C(F)(F)F [Example 460, (R)-7-(6-amino-5-(trifluoromethyl)pyrazin-2-yl)-3-(4-cyclopropyl-4-((6-oxo-5-(trifluoromethyl)-1,6-dihydropyridazin-4-yl)amino)butyl)-6-fluoroquinazolin-4(3H)-one]	69.9 nM
O=c1[nH]ncc(N[C@H](CCCn2ccc3cc(-c4ncc(C(F)F)cn4)c(F)c(F)c3c2=O)COC(F)F)c1C(F)(F)F [Example 388, (R)-2-(5-(difluoromethoxy)-4-((6-oxo-5-(trifluoromethyl)-1,6-dihydropyridazin-4-yl)amino)pentyl)-6-(5-(difluoromethyl)pyrimidin-2-yl)-7,8-difluoroisoquinolin-1(2H)-one]	2.74 nM
C[C@@H](CCCn1ccc2cc(-c3nc(C(F)(F)F)co3)c(F)cc2c1=O)Nc1cn[nH]c(=O)c1C(F)(F)F [Example 323, (S)-7-fluoro-2-(4-((6-oxo-5-(trifluoromethyl)-1,6-dihydropyridazin-4-yl)amino)pentyl)-6-(4-(trifluoromethyl)oxazol-2-yl)isoquinolin-1(2H)-one]	260 nM
C[C@@H](CCCn1ccc2cc(-c3ncc(C(C)(C)O)cn3)c(F)cc2c1=O)Nc1cn[nH]c(=O)c1C(F)(F)F [Example 74, 7-fluoro-6-[5-(1-hydroxy-1-methyl-ethyl)pyrimidin-2-yl]-2-[(4S)-4-[[6-oxo-5-(trifluoromethyl)-1H-pyridazin-4-yl]amino]pentyl]isoquinolin-1-one]	65.3 nM
C[C@@H](CCCn1ccc2cc(-c3ncc4c(n3)CS(=O)(=O)C4)c(F)cc2c1=O)Nc1cn[nH]c(=O)c1C(F)(F)F [Example 225, (S)-6-(6,6-dioxido-5,7-dihydrothieno[3,4-d]pyrimidin-2-yl)-7-fluoro-2-(4-((6-oxo-5-(trifluoromethyl)-1,6-dihydropyridazin-4-yl)amino)pentyl)isoquinolin-1(2H)-one]	957 nM
Cc1cnc(-c2cc3ncn(CCC[C@H](C)Nc4cn[nH]c(=O)c4C(F)(F)F)c(=O)c3cc2F)nc1N [Example 78, (S)-7-(4-amino-5-methylpyrimidin-2-yl)-6-fluoro-3-(4-((6-oxo-5-(trifluoromethyl)-1,6-dihydropyridazin-4-yl)amino)pentyl)quinazolin-4(3H)-one]	317 nM
CC[C@@H](CCCn1cnc2cc(-c3ncc(Cl)cn3)c(F)cc2c1=O)Nc1cn[nH]c(=O)c1C(F)(F)F [Example 157, 7-(5-chloropyrimidin-2-yl)-6-fluoro-3-[(4S)-4-[[6-oxo-5-(trifluoromethyl)-1H-pyridazin-4-yl]amino]hexyl]quinazolin-4-one]	22.7 nM
Nc1nc(-c2cc3ccn(C[C@@H]4CCC[C@H](Oc5cn[nH]c(=O)c5C(F)(F)F)C4)c(=O)c3cc2F)ncc1C(F)(F)F [Example 455, 6-(4-amino-5-(trifluoromethyl)pyrimidin-2-yl)-7-fluoro-2-(((1R,3S)-3-((6-oxo-5-(trifluoromethyl)-1,6-dihydropyridazin-4-yl)oxy)cyclohexyl)methyl)isoquinolin-1(2H)-one]	38.2 nM
COc1cnc(-c2cc3ccn(C[C@@H]4CCC[C@H](Nc5cn[nH]c(=O)c5C(F)(F)F)C4)c(=O)c3cc2F)nc1N [Example 255, 6-(4-amino-5-methoxypyrimidin-2-yl)-7-fluoro-2-(((1R,3S)-3-((6-oxo-5-(trifluoromethyl)-1,6-dihydropyridazin-4-yl)amino)cyclohexyl)methyl)isoquinolin-1(2H)-one]	9.1 nM
C[C@@H](CCCn1ccc2cc(-c3ncc(N4CC(O)(C(F)(F)F)C4)cn3)c(F)cc2c1=O)Nc1cn[nH]c(=O)c1C(F)(F)F [Example 69, 7-fluoro-6-[5-[3-hydroxy-3-(trifluoromethyl)azetidin-1-yl]pyrimidin-2-yl]-2-[(4S)-4-[[6-oxo-5-(trifluoromethyl)-1H-pyridazin-4-yl]amino]pentyl]isoquinolin-1-one]	148 nM
O=c1[nH]ncc(N[C@H](CCCn2ccc3cc(-c4ncc(C(F)(F)F)cn4)c(F)c(F)c3c2=O)c2nnc(C3CC3)o2)c1C(F)(F)F [Example 475, 2-[(4R)-4-(5-cyclopropyl-1,3,4-oxadiazol-2-yl)-4-[[6-oxo-5-(trifluoromethyl)-1H-pyridazin-4-yl]amino]butyl]-7,8-difluoro-6-[5-(trifluoromethyl)pyrimidin-2-yl]isoquinolin-1-one]	10.6 nM
COc1cnc(-c2cc3ncn(CCC[C@H](C)Nc4cn[nH]c(=O)c4C(F)(F)F)c(=O)c3cc2F)nc1N1CCC1 [Example 188, (S)-7-(4-(azetidin-1-yl)-5-methoxypyrimidin-2-yl)-6-fluoro-3-(4-((6-oxo-5-(trifluoromethyl)-1,6-dihydropyridazin-4-yl)amino)pentyl)quinazolin-4(3H)-one]	42 nM
C[C@@H](CCCn1cnc2cc(-c3ccc(Cl)c(N)n3)c(F)cc2c1=O)Nc1cn[nH]c(=O)c1C(F)(F)F [Example 294, (S)-7-(6-amino-5-chloropyridin-2-yl)-6-fluoro-3-(4-((6-oxo-5-(trifluoromethyl)-1,6-dihydropyridazin-4-yl)amino)pentyl)quinazolin-4(3H)-one]	28.8 nM
Nc1nc(-c2cc3ncn(CC[C@H]4CCC[C@@H]4Nc4cn[nH]c(=O)c4C(F)(F)F)c(=O)c3cc2F)ncc1C(F)(F)F [Example 464, 7-(4-amino-5-(trifluoromethyl)pyrimidin-2-yl)-6-fluoro-3-(2-((1R,2S)-2-((6-oxo-5-(trifluoromethyl)-1,6-dihydropyridazin-4-yl)amino)cvclopentyl)ethyl)quinazolin-4(3H)-one]	3.62 nM
O=c1[nH]ncc(N[C@H](CCCn2ccc3nc(-c4ccc(C(F)(F)F)cn4)ccc3c2=O)COC(F)F)c1C(F)(F)F [Example 386, (R)-6-(5-(difluoromethoxy)-4-((6-oxo-5-(trifluoromethyl)-1,6-dihydropyridazin-4-yl)amino)pentyl)-2-(5-(trifluoromethyl)pyridin-2-yl)-1,6-naphthyridin-5(6H)-one]	2.96 nM
COc1ccc(-c2cc3ccn(CCC[C@H](C)Nc4cn[nH]c(=O)c4C(F)(F)F)c(=O)c3cc2F)nc1N [Example 195, (S)-6-(6-amino-5-methoxypyridin-2-yl)-7-fluoro-2-(4-((6-oxo-5-(trifluoromethyl)-1,6-dihydropyridazin-4-yl)amino)pentyl)isoquinolin-1(2H)-one]	8.14 nM
